In article PMC3961306, “Comparison of the Cancer Gene Targeting and Biochemical Selectivities of All Targeted Kinase Inhibitors Approved for Clinical Use” (PLoS ONE, 2014):

Assays:
Experiment in all cases: Kinase profiling in a biochemical assay panel (mobility shift assays and ELISA), %-inhibition at 1 μM; selectivity entropy
[1] = biological target: panel of more than 300 wild-type and mutant kinases (313 kinase panel) (Homo sapiens, UniProt Q9H4A3); settings: kinase WNK1; compound at 1 μM
[2] = biological target: T1, panel of more than 300 wild-type and mutant kinases (313 kinase panel) (Homo sapiens, UniProt Q05513); settings: kinase PKCζ; 1 μM
T1 sequence (Q05513 1-592): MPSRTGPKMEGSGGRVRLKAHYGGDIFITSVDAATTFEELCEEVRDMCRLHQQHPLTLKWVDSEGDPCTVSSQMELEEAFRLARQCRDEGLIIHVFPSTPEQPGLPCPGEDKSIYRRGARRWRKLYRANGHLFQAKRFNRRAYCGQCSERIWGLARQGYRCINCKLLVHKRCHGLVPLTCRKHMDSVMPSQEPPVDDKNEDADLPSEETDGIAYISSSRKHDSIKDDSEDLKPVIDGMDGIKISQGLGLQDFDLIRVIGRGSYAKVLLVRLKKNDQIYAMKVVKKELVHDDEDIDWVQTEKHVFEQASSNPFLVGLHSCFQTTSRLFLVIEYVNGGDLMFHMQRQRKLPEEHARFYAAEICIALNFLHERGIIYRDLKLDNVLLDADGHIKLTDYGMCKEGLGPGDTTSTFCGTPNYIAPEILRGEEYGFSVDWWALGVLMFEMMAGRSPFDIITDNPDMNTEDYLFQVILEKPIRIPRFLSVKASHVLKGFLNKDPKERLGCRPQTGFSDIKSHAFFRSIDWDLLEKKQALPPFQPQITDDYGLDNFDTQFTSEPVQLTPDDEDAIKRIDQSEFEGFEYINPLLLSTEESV

[3] = biological target: panel of more than 300 wild-type and mutant kinases (313 kinase panel) (Homo sapiens, UniProt Q9UM73, L1196M); settings: kinase ALK(L1196M); 1 μM compound
[4] = biological target: T2, panel of more than 300 wild-type and mutant kinases (313 kinase panel) (Homo sapiens, UniProt P43403); settings: kinase ZAP70; compound at 1 μM
T2 sequence (P43403 1-619): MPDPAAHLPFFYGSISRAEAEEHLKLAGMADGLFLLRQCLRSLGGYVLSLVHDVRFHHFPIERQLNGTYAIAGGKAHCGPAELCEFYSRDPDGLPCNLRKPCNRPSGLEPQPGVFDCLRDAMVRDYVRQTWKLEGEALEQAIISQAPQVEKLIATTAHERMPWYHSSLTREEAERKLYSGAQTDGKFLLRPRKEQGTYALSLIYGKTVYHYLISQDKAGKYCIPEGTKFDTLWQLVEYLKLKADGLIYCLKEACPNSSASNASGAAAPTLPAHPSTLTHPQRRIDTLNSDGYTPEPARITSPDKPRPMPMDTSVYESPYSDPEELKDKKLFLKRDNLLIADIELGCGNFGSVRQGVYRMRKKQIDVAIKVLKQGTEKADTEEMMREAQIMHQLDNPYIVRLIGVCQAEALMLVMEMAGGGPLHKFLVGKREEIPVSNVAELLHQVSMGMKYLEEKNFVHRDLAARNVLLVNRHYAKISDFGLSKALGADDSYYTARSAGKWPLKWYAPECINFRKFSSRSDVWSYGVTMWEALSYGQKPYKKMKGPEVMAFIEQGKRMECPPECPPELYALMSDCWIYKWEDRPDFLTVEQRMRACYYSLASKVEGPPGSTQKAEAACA

[5] = biological target: panel of more than 300 wild-type and mutant kinases (313 kinase panel) (Homo sapiens, UniProt P06239); settings: kinase LCK; compound at 1 μM
[6] = biological target: panel of more than 300 wild-type and mutant kinases (313 kinase panel) (Homo sapiens, UniProt P19784); settings: kinase CK2α2/β; 1 μM compound
[7] = biological target: panel of more than 300 wild-type and mutant kinases (313 kinase panel) (Homo sapiens, UniProt Q9UQM7); settings: kinase CaMK2α; 1 μM compound
[8] = biological target: panel of more than 300 wild-type and mutant kinases (313 kinase panel) (Homo sapiens, UniProt Q06187); settings: kinase BTK; 1 μM compound
[9] = biological target: panel of more than 300 wild-type and mutant kinases (313 kinase panel) (Homo sapiens, UniProt P36507); settings: kinase MAP2K2; compound at 1 μM
[10] = biological target: panel of more than 300 wild-type and mutant kinases (313 kinase panel) (Homo sapiens, UniProt P16234, V561D); settings: kinase PDGFRα(V561D); 1 μM
Sequence of panel of more than 300 wild-type and mutant kinases (313 kinase panel) (Homo sapiens, UniProt P16234, V561D) (P16234 24-1089 V561D): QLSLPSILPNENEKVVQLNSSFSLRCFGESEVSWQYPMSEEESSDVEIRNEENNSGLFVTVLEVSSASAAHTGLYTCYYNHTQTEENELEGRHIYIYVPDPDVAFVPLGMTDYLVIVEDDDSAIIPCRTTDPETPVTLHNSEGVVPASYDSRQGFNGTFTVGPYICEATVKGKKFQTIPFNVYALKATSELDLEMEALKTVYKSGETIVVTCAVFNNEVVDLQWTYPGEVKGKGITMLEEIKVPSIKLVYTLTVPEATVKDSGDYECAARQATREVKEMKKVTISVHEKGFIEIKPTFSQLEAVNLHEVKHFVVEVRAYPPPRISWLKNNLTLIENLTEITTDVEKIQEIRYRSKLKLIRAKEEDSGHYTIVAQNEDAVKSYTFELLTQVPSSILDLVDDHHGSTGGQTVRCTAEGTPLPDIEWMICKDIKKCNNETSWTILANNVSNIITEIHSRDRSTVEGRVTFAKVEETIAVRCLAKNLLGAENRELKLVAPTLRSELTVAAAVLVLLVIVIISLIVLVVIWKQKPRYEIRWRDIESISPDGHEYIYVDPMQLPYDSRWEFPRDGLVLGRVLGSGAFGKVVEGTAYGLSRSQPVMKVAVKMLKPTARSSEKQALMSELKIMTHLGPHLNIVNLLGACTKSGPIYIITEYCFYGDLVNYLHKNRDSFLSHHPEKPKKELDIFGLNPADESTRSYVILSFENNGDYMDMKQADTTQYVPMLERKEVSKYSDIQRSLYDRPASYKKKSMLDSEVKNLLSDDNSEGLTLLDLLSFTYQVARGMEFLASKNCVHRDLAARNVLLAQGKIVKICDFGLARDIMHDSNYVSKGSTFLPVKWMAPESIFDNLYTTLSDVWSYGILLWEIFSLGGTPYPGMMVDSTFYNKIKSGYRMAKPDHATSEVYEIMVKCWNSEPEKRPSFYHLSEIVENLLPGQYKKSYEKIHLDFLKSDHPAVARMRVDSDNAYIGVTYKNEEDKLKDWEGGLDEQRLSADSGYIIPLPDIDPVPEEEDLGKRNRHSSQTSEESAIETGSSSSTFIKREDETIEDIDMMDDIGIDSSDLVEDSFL

Sequence of panel of more than 300 wild-type and mutant kinases (313 kinase panel) (Homo sapiens, UniProt P19784) (P19784 whole entry, change not shown): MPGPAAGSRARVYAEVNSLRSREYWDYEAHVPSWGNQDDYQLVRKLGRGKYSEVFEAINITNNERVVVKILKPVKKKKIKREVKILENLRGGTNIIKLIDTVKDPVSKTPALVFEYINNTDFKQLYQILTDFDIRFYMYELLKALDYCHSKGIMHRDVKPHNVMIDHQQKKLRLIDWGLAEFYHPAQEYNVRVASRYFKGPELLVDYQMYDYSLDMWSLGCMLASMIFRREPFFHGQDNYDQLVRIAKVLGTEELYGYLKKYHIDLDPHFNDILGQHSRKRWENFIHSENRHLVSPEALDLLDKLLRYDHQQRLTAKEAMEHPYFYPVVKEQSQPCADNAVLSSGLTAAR
Sequence of panel of more than 300 wild-type and mutant kinases (313 kinase panel) (Homo sapiens, UniProt Q9UQM7) (Q9UQM7 whole entry, change not shown): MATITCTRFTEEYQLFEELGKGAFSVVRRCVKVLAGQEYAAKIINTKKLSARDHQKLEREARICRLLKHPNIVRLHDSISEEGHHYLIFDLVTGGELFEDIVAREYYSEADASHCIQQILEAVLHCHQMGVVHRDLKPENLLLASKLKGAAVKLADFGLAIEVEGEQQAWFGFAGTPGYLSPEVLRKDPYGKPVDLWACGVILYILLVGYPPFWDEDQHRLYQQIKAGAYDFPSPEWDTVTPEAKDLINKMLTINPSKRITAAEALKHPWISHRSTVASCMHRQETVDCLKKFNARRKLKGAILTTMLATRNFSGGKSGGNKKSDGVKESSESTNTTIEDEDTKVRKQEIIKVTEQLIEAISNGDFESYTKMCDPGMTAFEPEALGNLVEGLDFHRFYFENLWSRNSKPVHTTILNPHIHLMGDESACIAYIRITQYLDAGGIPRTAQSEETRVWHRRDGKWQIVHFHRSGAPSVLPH
Sequence of panel of more than 300 wild-type and mutant kinases (313 kinase panel) (Homo sapiens, UniProt Q9H4A3) (Q9H4A3 whole entry, change not shown): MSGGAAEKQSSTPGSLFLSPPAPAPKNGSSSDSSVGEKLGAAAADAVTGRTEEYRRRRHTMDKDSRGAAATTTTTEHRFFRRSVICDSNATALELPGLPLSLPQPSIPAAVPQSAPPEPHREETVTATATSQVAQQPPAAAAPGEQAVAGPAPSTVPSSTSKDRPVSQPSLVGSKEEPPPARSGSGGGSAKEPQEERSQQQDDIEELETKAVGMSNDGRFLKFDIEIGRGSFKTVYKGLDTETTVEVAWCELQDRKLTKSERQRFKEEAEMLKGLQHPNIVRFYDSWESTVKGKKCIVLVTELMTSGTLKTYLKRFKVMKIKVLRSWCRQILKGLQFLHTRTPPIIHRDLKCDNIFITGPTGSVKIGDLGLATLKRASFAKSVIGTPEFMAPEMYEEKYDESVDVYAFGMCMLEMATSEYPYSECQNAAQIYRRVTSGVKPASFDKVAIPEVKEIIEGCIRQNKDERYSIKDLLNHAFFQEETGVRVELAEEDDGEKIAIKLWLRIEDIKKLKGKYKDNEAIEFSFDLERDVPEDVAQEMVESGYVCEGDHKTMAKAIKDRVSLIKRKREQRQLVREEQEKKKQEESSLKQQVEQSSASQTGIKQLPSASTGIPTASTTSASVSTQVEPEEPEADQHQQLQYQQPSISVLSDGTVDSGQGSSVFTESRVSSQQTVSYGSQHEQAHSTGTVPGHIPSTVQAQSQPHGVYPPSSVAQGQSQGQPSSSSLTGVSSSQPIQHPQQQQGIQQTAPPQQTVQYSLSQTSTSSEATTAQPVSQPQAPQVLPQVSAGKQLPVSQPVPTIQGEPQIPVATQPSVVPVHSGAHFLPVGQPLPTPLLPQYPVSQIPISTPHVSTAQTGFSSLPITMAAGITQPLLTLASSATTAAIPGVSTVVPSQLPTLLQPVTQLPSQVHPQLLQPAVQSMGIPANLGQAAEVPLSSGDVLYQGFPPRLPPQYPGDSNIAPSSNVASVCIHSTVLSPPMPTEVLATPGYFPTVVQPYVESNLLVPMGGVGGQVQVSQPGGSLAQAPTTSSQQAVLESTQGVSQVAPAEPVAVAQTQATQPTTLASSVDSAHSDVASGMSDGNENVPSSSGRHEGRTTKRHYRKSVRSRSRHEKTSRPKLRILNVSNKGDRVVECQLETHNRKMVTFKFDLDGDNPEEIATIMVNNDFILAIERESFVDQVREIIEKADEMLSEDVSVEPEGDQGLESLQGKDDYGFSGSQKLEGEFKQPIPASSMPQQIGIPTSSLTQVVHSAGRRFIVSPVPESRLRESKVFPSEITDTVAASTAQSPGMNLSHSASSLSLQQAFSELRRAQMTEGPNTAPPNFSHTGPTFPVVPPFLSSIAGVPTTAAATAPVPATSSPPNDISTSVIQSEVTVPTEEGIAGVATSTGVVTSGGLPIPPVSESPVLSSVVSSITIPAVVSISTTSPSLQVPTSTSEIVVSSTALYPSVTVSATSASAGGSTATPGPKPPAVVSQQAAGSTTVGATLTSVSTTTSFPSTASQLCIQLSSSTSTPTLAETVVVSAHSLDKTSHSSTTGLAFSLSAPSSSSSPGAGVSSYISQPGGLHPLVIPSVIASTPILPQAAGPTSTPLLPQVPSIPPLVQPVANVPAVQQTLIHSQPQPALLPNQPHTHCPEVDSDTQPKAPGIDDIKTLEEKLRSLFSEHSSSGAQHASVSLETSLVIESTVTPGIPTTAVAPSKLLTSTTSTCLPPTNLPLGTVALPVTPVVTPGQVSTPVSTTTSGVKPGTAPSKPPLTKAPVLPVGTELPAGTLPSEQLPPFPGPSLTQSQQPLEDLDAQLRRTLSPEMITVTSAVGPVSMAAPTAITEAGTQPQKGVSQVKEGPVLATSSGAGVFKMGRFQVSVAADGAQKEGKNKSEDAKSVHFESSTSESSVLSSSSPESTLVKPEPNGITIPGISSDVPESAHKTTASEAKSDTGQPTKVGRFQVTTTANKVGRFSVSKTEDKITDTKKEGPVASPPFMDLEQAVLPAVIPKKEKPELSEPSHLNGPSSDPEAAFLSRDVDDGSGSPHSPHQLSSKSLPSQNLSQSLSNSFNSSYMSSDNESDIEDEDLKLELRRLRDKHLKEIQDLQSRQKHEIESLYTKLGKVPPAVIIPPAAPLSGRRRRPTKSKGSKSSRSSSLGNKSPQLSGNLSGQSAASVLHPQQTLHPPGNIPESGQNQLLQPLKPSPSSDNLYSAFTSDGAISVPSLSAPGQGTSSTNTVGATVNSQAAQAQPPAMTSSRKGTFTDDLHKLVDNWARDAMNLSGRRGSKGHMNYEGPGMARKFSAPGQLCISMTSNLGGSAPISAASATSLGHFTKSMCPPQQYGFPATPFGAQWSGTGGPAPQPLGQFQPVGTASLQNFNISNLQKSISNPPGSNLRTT
Sequence of panel of more than 300 wild-type and mutant kinases (313 kinase panel) (Homo sapiens, UniProt P06239) (P06239 whole entry, change not shown): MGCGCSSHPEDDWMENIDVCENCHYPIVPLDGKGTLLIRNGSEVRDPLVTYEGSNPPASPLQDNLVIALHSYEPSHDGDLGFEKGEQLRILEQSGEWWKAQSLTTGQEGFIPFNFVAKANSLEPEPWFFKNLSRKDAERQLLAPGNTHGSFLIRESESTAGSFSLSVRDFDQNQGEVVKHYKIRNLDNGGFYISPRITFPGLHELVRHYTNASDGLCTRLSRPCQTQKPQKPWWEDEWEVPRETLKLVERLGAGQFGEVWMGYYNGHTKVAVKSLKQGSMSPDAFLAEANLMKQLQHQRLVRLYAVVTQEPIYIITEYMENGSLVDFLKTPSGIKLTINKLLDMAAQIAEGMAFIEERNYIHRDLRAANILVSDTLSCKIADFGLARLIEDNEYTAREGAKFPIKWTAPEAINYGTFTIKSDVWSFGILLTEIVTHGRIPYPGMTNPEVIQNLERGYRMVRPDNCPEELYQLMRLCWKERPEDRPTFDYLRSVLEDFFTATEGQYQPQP

Compound	%-inhibition of WNK1 [1] [%]	%-inhibition of PKCζ [2] [%]	%-inhibition, ALK(L1196M) [3] [%]	%-inhibition of ZAP70 [4] [%]	%-inhibition of LCK [5] [%]	%-inhibition, CK2α2/β [6] [%]	%-inhibition, CaMK2α [7] [%]	%-inhibition, BTK [8] [%]	%-inhibition of MAP2K2 [9] [%]	%-inhibition of PDGFRα(V561D) [10] [%]
CO[C@H]1C[C@@H]2CC[C@@H](C)[C@@](O)(O2)C(=O)C(=O)N2CCCC[C@H]2C(=O)O[C@H]([C@H](C)C[C@@H]2CC[C@@H](OCCO)[C@H](OC)C2)CC(=O)[C@H](C)/C=C(\C)[C@@H](O)[C@@H](OC)C(=O)[C@H](C)C[C@H](C)/C=C/C=C/C=C/1C [everolimus]	-5	5	-3.63	-2	-2.67	-1.28	-8	1.16	11	-6
CO[C@H]1C[C@@H]2CC[C@@H](C)[C@@](O)(O2)C(=O)C(=O)N2CCCC[C@H]2C(=O)O[C@H]([C@H](C)C[C@@H]2CC[C@@H](OC(=O)C(C)(CO)CO)[C@H](OC)C2)CC(=O)[C@H](C)/C=C(\C)[C@@H](O)[C@@H](OC)C(=O)[C@H](C)C[C@H](C)/C=C/C=C/C=C/1C [temsirolimus]	-4.27	5	-2.81	-2.76	-2.22	-5.28	-7	18	13	-4
